Common to all, as to assay type: cell-based
Assay [1] deals with T1, human GLP-1 receptor (GLP-1R) (Homo sapiens, UniProt P43220).
T1 construct: expressed in transfected cells
The experiment in a line: cAMP assay, human GLP-1R cells. In outline: (§1)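 Peptide-stimulated cAMP measured by two-step HTRF after a 30 min room-temperature incubation with receptor-expressing cells (hGLP-1R, hGIPR at 1×10^5 cells/ml; hGCGR at 2×10^5 cells/ml). Duplicate dilutions; EC50 from 4-parameter logistic fit of % Delta F.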
A general note: cAMP levels reflect the balance of adenylyl cyclase and phosphodiesterase activity.

Assay [2] addresses T2, human glucagon receptor (GCGR) (Homo sapiens, UniProt P47871).
T2 construct: expressed in transfected cells
The assay can be described thus: cAMP assay, human GCGR cells. The settings on record: cAMP assay. In outline: as §1

The target of assay [3] is T3, human glucose-dependent insulinotropic peptide receptor (GIPR) (Homo sapiens, UniProt P48546).
T3 construct: expressed in transfected cells
T3 sequence (P48546 22-466): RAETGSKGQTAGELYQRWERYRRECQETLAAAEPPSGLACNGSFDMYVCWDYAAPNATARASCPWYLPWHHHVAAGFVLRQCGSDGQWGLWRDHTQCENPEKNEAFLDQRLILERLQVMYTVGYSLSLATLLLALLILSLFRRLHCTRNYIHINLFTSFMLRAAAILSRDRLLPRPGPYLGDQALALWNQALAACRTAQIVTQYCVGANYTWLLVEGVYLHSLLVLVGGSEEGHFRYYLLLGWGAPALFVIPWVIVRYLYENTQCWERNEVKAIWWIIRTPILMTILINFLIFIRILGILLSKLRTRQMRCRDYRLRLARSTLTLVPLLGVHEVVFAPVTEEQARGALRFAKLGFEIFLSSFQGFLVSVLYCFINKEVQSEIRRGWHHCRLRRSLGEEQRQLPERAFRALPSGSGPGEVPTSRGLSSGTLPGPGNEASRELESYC
The assay can be described thus: cAMP assay, human GIPR cells. As to conditions: cAMP assay. In outline: as §1

Assay [4] concerns the target T4, GLP-1R (INS1e assay) (Rattus norvegicus, UniProt P32301).
T4 construct: endogenous in cells; host or cells: INS-1E cells
T4 sequence (P32301 22-463): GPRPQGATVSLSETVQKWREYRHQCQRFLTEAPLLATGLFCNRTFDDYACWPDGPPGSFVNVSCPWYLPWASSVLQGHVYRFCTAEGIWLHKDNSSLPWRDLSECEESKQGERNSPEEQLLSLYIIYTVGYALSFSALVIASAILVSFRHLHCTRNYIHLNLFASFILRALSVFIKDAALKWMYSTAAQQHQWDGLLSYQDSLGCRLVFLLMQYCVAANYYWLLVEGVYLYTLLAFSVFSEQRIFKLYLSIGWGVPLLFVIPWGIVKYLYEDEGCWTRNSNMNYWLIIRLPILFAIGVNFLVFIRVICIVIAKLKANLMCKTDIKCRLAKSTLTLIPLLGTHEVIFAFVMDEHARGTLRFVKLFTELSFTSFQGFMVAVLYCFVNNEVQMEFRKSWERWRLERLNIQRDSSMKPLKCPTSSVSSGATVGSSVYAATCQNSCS
The experiment in a line: INS1e assay, cAMP activity at GLP-1R. As to conditions: mono-lipidated peptides. An outline of the steps: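 cAMP was quantified by two-step HTRF, using anti-cAMP cryptate donor and cAMP-d2 acceptor, each diluted 1/20 in conjugate and lysis buffer. EC50 values of the synthetic peptides were derived from the cAMP readout.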

The mark [5] stands for this setting: cAMP assay, first determination (n1), read-out: Primary assay EC50 GLP-1R n1.
Setting [6] is: cAMP assay, second determination (n2), read-out: Primary assay EC50 GLP-1R n2.
Where [7] appears, read: mean of n1 and n2, read-out: Mean pM GLP-1R.
The mark [8] stands for this setting: first determination (n1), read-out: Primary assay EC50 Gluc-R (n1).
[9] abbreviates: second determination (n2), read-out: Primary assay EC50 Gluc-R (n2).
The mark [10] stands for this setting: first determination (n1), read-out: Primary assay EC50 GIP-R (n1).
Setting [11] is: second determination (n2), read-out: Primary assay EC50 GIP-R (n2).
The mark [12] stands for this setting: mean of n1 and n2, read-out: INS1e assay EC50 Mean pM GLP-1R.
Setting [13] is: replicate n1, read-out: INS1e assay EC50 GLP-1R n1.
[14] abbreviates: replicate n2, read-out: INS1e assay EC50 GLP-1R n2.

Molecules are shown by their SMILES. Like-named read-outs stand apart in the source and are kept apart here. Numbered stars: 1 amine (or outer) side, 2 acyl side, 3 side chain; on linkers, the order of the positions; unused ones are H or OH. Square brackets hold non-standard residues; d marks the D form. Side chains are listed from the residue outwards. Peptide text beside a SMILES is read from it. * marks the point of attachment. γGlu = O=C(O)[C@H](CCC(=O)[*:2])N[*:1]; Palmitoyl = CCCCCCCCCCCCCCCC(=O)*; αMeF = C[C@](N)(Cc1ccccc1)C(=O)O; αMeK = C[C@](N)(CCCCN)C(=O)O; αMeS = C[C@](N)(CO)C(=O)O; Aib = CC(C)(N)C(=O)O A value given as a limit tells only on which side of the number the result lay.

T2 sequence (P47871 26-477): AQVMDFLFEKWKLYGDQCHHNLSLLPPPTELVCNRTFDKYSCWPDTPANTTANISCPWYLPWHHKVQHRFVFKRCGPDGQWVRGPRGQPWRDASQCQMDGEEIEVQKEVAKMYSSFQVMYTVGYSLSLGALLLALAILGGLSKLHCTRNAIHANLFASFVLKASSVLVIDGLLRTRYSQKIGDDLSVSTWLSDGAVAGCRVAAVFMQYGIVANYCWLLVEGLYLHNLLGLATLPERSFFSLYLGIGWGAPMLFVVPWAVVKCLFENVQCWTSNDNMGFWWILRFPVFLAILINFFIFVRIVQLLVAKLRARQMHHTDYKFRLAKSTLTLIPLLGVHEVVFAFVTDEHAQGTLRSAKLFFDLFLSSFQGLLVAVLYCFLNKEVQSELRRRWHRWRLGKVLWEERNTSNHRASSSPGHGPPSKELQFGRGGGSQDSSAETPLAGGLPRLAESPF
T1 sequence (P43220 24-463): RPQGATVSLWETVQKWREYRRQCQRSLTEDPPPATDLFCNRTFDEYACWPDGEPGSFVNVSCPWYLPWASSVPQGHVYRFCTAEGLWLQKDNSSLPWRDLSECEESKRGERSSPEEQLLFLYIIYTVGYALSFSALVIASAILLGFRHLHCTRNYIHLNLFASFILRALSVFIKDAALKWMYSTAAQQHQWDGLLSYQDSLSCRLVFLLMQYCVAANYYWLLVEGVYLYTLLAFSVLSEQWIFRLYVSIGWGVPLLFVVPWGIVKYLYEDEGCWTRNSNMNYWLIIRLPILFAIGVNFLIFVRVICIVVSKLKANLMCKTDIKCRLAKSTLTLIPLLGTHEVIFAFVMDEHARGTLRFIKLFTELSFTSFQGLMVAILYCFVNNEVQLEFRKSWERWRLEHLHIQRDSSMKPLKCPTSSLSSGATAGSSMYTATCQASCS

On to `CCCCCCCCCCCCCCCC(=O)N[C@@H](CCC(=O)NCCCC[C@H](NC(=O)[C@H](CO)NC(=O)[C@@H](NC(=O)[C@](C)(Cc1ccccc1)NC(=O)[C@H](CO)NC(=O)CNC(=O)[C@H](CCC(=O)O)NC(=O)C(C)(C)NC(=O)[C@@H](N)Cc1c[nH]cn1)[C@@H](C)O)C(=O)N[C@H](C(=O)N[C@@](C)(CO)C(=O)N[C@@H](CO)C(=O)N[C@@](C)(Cc1ccccc1)C(=O)N[C@@H](CC(C)C)C(=O)N[C@@H](CCC(=O)O)C(=O)NCC(=O)N[C@@H](CCC(=O)O)C(=O)N[C@@H](C)C(=O)N[C@@H](C)C(=O)N[C@@](C)(CCCCN)C(=O)N[C@@H](CCC(=O)O)C(=O)N[C@@](C)(Cc1ccccc1)C(=O)N[C@H](C(=O)N[C@@H](C)C(=O)N[C@@](C)(Cc1ccccc1)C(=O)N[C@H](C(=O)N[C@H](C(=O)N[C@@](C)(CCCCN)C(=O)NCC(=O)NCC(N)=O)C(C)C)C(C)C)[C@@H](C)CC)C(C)C)C(=O)O` [compound 91] (H-H[Aib]EGS[αMeF]TSK([γGlu-Palmitoyl])V[αMeS]S[αMeF]LEGEAA[αMeK]E[αMeF]IA[αMeF]VV[αMeK]GG-NH2), for which the EC50 in assay [1] (setting [5]) was 21 pM; in assay [1] (setting [6]), 27 pM; in assay [1] (setting [7]) it was 24 pM; in assay [2] (setting [8]) it was not below 28 nM; in assay [2] (setting [9]), not below 28 nM; in assay [3] (setting [10]), not below 28 nM. In addition, the EC50 in assay [3] (setting [11]) is not below 28 nM; in assay [4] (setting [12]) it was 2720 pM; in assay [4] (setting [13]), 1930 pM; in assay [4] (setting [14]), 3500 pM.

`CC[C@H](C)[C@H](NC(=O)[C@H](Cc1ccccc1)NC(=O)[C@H](CCC(=O)O)NC(=O)[C@H](CCCCN)NC(=O)[C@H](C)NC(=O)[C@H](C)NC(=O)[C@H](CCC(N)=O)NC(=O)CNC(=O)[C@H](CCC(=O)O)NC(=O)[C@H](CC(C)C)NC(=O)[C@H](Cc1ccc(O)cc1)NC(=O)[C@H](CO)NC(=O)[C@H](CO)NC(=O)[C@@H](NC(=O)[C@H](CC(=O)O)NC(=O)[C@H](CO)NC(=O)[C@@H](NC(=O)[C@H](Cc1ccccc1)NC(=O)[C@@H](NC(=O)CNC(=O)[C@H](CCC(=O)O)NC(=O)C(C)(C)NC(=O)[C@@H](N)Cc1c[nH]cn1)[C@@H](C)O)[C@@H](C)O)C(C)C)C(=O)N[C@@H](C)C(=O)N[C@@H](Cc1c[nH]c2ccccc12)C(=O)N[C@@H](CC(C)C)C(=O)N[C@H](C(=O)N[C@@H](CCCCN)C(=O)NCC(=O)N[C@@H](CCCNC(=N)N)C(=O)N[C@@H](CCCCNC(=O)COCCOCCNC(=O)COCCOCCNC(=O)CC[C@H](NC(=O)CCCCCCCCCCCCCCCCC(=O)O)C(=O)O)C(N)=O)C(C)C` [compound 6]: the EC50 in assay [1] (setting [5]) is 4.8 pM; in assay [2] (setting [8]), not below 22 nM; in assay [2] (setting [9]), not below 22 nM; in assay [3] (setting [10]), not below 22 nM; in assay [3] (setting [11]), not below 22 nM; in assay [4] (setting [12]), 122 pM. In addition, the EC50 was 104 pM in assay [4] (setting [13]) and 139 pM in assay [4] (setting [14]).

As for `CCCCCCCCCCCCCCCCCC(=O)NCCOCCOCC(=O)NCCOCCOCC(=O)NCCOCCOCC(=O)NCCCC[C@H](NC(=O)[C@H](C)NC(=O)[C@H](C)NC(=O)[C@H](CCC(=O)O)NC(=O)CNC(=O)[C@H](CCC(=O)O)NC(=O)[C@H](CC(C)C)NC(=O)[C@](C)(Cc1ccccc1)NC(=O)[C@H](CO)NC(=O)[C@](C)(CO)NC(=O)[C@@H](NC(=O)[C@H](CC(=O)O)NC(=O)[C@H](CO)NC(=O)[C@@H](NC(=O)[C@](C)(Cc1ccccc1)NC(=O)[C@H](CO)NC(=O)CNC(=O)[C@H](CCC(=O)O)NC(=O)C(C)(C)NC(=O)[C@@H](N)Cc1c[nH]cn1)[C@@H](C)O)C(C)C)C(=O)N[C@@H](CCC(=O)O)C(=O)N[C@@](C)(Cc1ccccc1)C(=O)N[C@H](C(=O)N[C@@H](C)C(=O)N[C@@](C)(Cc1ccccc1)C(=O)N[C@H](C(=O)N[C@H](C(=O)N[C@@](C)(CCCCN)C(=O)NCC(=O)NCC(N)=O)C(C)C)C(C)C)[C@@H](C)CC` [compound 154], the EC50 in assay [1] (setting [5]) was 2.8 pM; in assay [1] (setting [6]), 2.3 pM; in assay [1] (setting [7]), 2.5 pM; in assay [2] (setting [8]), not below 26 nM; in assay [2] (setting [9]), not below 26 nM; in assay [3] (setting [10]) it was not below 26 nM. Moreover, the EC50 in assay [3] (setting [11]) is not below 26 nM; in assay [4] (setting [12]), 25 pM; in assay [4] (setting [13]), 32.3 pM; in assay [4] (setting [14]), 17.1 pM.

Regarding `CC[C@H](C)[C@H](NC(=O)[C@](C)(Cc1ccccc1)NC(=O)[C@H](CCC(=O)O)NC(=O)[C@H](CCCCNC(=O)CCCCCNC(=O)CCCCCCCCCCCOc1ccc(C(=O)O)cc1)NC(=O)[C@H](C)NC(=O)[C@H](C)NC(=O)[C@H](CCC(=O)O)NC(=O)CNC(=O)[C@H](CCC(=O)O)NC(=O)[C@H](CC(C)C)NC(=O)[C@](C)(Cc1ccccc1)NC(=O)[C@H](CO)NC(=O)[C@](C)(CO)NC(=O)[C@@H](NC(=O)[C@H](CC(=O)O)NC(=O)[C@H](CO)NC(=O)[C@@H](NC(=O)[C@](C)(Cc1ccccc1)NC(=O)[C@H](CO)NC(=O)CNC(=O)[C@H](CCC(=O)O)NC(=O)C(C)(C)NC(=O)[C@@H](N)Cc1c[nH]cn1)[C@@H](C)O)C(C)C)C(=O)N[C@@H](C)C(=O)N[C@@](C)(Cc1ccccc1)C(=O)N[C@H](C(=O)N[C@H](C(=O)N[C@@](C)(CCCCN)C(=O)NCC(=O)NCC(N)=O)C(C)C)C(C)C` [compound 140], the EC50 was 5.9 pM in assay [1] (setting [5]); 3.9 pM in assay [1] (setting [6]); 4.9 pM in assay [1] (setting [7]); not below 27 nM in assay [2] (Primary assay EC50 Gluc-R (n1), first determination (n1)); not below 27 nM in assay [2] (read-out: Primary assay EC50 Gluc-R (n2), second determination (n2)); not below 27 nM in assay [3] (Primary assay EC50 GIP-R (n1), first determination (n1)). Besides, the EC50 in assay [3] (read-out: Primary assay EC50 GIP-R (n2), second determination (n2)) is not below 27 nM; in assay [4] (setting [12]), 30 pM; in assay [4] (setting [13]), 43.2 pM; in assay [4] (setting [14]) it was 16.7 pM.

Regarding `CCCCCCCCCCCC(=O)NCCOCCOCC(=O)NCCOCCOCC(=O)NCCCC[C@H](NC(=O)[C@H](C)NC(=O)[C@H](C)NC(=O)[C@H](CCC(=O)O)NC(=O)CNC(=O)[C@H](CCC(=O)O)NC(=O)[C@H](CC(C)C)NC(=O)[C@](C)(Cc1ccccc1)NC(=O)[C@H](CO)NC(=O)[C@](C)(CO)NC(=O)[C@@H](NC(=O)[C@H](CC(=O)O)NC(=O)[C@H](CO)NC(=O)[C@@H](NC(=O)[C@](C)(Cc1ccccc1)NC(=O)[C@H](CO)NC(=O)CNC(=O)[C@H](CCC(=O)O)NC(=O)C(C)(C)NC(=O)[C@@H](N)Cc1c[nH]cn1)[C@@H](C)O)C(C)C)C(=O)N[C@@H](CCC(=O)O)C(=O)N[C@@](C)(Cc1ccccc1)C(=O)N[C@H](C(=O)N[C@@H](C)C(=O)N[C@@](C)(Cc1ccccc1)C(=O)N[C@H](C(=O)N[C@H](C(=O)N[C@@](C)(CCCCN)C(=O)NCC(=O)NCC(N)=O)C(C)C)C(C)C)[C@@H](C)CC` [compound 135], the EC50 was 5.4 pM in assay [1] (setting [5]); 4.5 pM in assay [1] (setting [6]); 5 pM in assay [1] (setting [7]); not below 27 nM in assay [2] (setting [8]); not below 27 nM in assay [2] (setting [9]); not below 27 nM in assay [3] (setting [10]). The EC50 in assay [3] (setting [11]) was not below 27 nM; in assay [4] (setting [12]), 79 pM; in assay [4] (setting [13]), 98.6 pM; in assay [4] (setting [14]) it was 59.3 pM.
